Assay results taken from patent US12522587B2, “Cancer treatments targeting cancer stem cells” (Remedy Plan, Inc., priority 2018, dated 2026).
Counter-ions that a name gives are not always drawn. Like-named read-outs stand apart in the source and are kept apart here.

Key:
AGS cells = test: Cell viability in AGS cells (CellTiter Glo2, 8-point dose response, 4 days); type: cell-based, human
Description: AGS cells were treated with DMSO (no drug control) or each compound in Table 5 in an 8-point dose response for 4 days. Cell viability was measured using CellTiter Glo2. The IC50 of each compound was determined using CDD Vault.

MV-4-11 cells = test: Cell viability in MV-4-11 cells (CellTiter Glo2, 4 days); type: cell-based; details: Homo sapiens, MV4-11, 96 h
Description: Approximately 10,000 MV-4-11 cells per well of a 96-well plate were treated with DMSO (no drug control) or each compound in Table 6 in an 8-point dose response for 4 days. Cell viability was measured using CellTiter Glo2. The IC50 of each compound was determined using CDD Vault.

RS4;11 cells = test: Cell viability in RS4;11 cells (CellTiter Glo2, 4 days); type: cell-based; details: Homo sapiens, 96 h
Description: Approximately 10,000 RS4;11 cells per well of a 96-well plate were treated with DMSO (no drug control) or each compound in Table 6 in an 8-point dose response for 4 days. Cell viability was measured using CellTiter Glo2. The IC50 of each compound was determined using CDD Vault.

IC50 (AGS cells; Homo sapiens, AGS, 96 h) | Structure (SMILES) | other results
1.09 µM | CCC(=O)N(C)c1ccc(-c2ccc(C(=O)NCc3cccnc3)cc2)cc1Cl [Compound I-225, 3′-chloro-4′-(N-methylpropionamido)-N-(pyridin-3-ylmethyl)-[1,1′-biphenyl]-4-carboxamide] | IC50 (MV-4-11 cells): 0.613 µM; IC50 (RS4;11 cells): 0.237 µM
3.41 µM | CCOC(=O)N(C)c1ccc(-c2ccc(C(=O)NCc3cccnc3)cc2)cc1 [Compound I-231, ethyl methyl(4′-((pyridin-3-ylmethyl)carbamoyl)-[1,1′-biphenyl]-4-yl)carbamate] | IC50 (MV-4-11 cells): 0.741 µM; IC50 (RS4;11 cells): 2.92 µM
3.52 µM | COCCN1CCc2cc(-c3ccc(C(=O)NCc4cccnc4)cc3)ccc21 [Compound I-53, 4-(1-(2-methoxyethyl)indolin-5-yl)-N-(pyridin-3-ylmethyl)benzamide] | –
> 30 µM | CCC(=O)Nc1ccc(-c2ccc(C(=O)NCc3cccnc3)cc2)cc1 [Compound I-44, 4′-propionamido-N-(pyridin-3-ylmethyl)-[1,1′-biphenyl]-4-Carboxamide] | –
15.5 µM | CCC(=O)N1CCc2cc(-c3ccc(C(=O)NCc4ccccn4)cc3)ccc21 [Compound I-185, 4-(1-propionylindolin-5-yl)-N-(pyridin-2-ylmethyl)benzamide] | IC50 (AGS cells): 21 µM
– | CCC(=O)N1CCc2cc(-c3ccc(C(=O)N(C)Cc4cccnc4)cc3)ccc21 [Compound I-62, N-methyl-4-(1-propionylindolin-5-yl)-N-(pyridin-3-ylmethyl)benzamide] | IC50 (AGS cells; Homo sapiens, 96 h): 29.3 µM
> 30 µM | CCC(=O)N(C)c1ccc(-c2ccc(C(=O)NCc3ccccc3)cc2)cc1 [Compound I-239] | –
> 30 µM | CCC(=O)N1CCc2cc(-c3ccc(C(=O)NCC4CN(C(=O)OC(C)(C)C)C4)cc3)ccc21 [Compound I-196] | –
– | CCC(=O)N1CCc2cc(-c3ccc(C(=O)NCC4=CC[NH2+]CC4)cc3)ccc21 [Mono- formate of I-69, Monoformate 4-(1-propionylindolin-5-yl)-N-((1,2,3,6-tetrahydropyridin-4-yl)methyl)benzamide] | IC50 (AGS cells; Homo sapiens, 96 h): > 30 µM
> 30 µM | CCC(=O)N1CCc2cc(-c3ccc(C(=O)NC(C)(C)c4cccnc4)cc3)ccc21 [Compound I-58, 4-(1-propionylindolin-5-yl)-N-(2-(pyridin-3-yl)propan-2-yl)benzamide] | –
3.17 µM | CCC(=O)N1CCc2cc(-c3ccc(C(=O)NCc4cccnc4)cc3F)ccc21 [Compound I-97, 3-fluoro-4-(1-propionylindolin-5-yl)-N-(pyridin-3-ylmethyl) benzamide] | –
> 30 µM | CCC(=O)N1CCc2cc(-c3ncc(C(=O)NCc4cccnc4)cn3)ccc21 [Compound I-66, 2-(1-propionylindolin-5-yl)-N-(pyridin-3-ylmethyl) pyrimidine-5-carboxamide] | –
1.85 µM | CCC(=O)N(C)c1ccc(-c2ccc(C(=O)NCc3cccnc3)cc2)c(C)c1 [Compound I-217] | –
1.06 µM | CCC(=O)N1CCc2cc(-c3ccc(C(=O)NCc4cncc(C)c4)cc3)ccc21 [Compound I-198, N-((5-methylpyridin-3-yl)methyl)-4-(1-propionylindolin-5-yl)benzamide] | –
6.61 µM | CCC(=O)N1CCc2cc(-c3ccc(C(=O)Nc4cccnc4)cc3)ccc21 [Compound I-74] | –
0.96 µM | CCC(=O)N1CCc2c1ccc(-c1ccc(C(=O)NCc3cccnc3)cc1)c2Cl [Compound I-214] | –
> 30 µM | CCC(=O)N1CCc2cc(-c3ccc(C(=O)NCc4ccc(C)cc4)cc3)ccc21 [Compound I-157] | –
> 30 µM | CCC(=O)N1CCc2cc(-c3ccc(C(=O)NCc4cccnc4)c(OC)c3)ccc21 [Compound I-96, 2-methoxy-4-(1-propionylindolin-5-yl)-N-(pyridin-3-ylmethyl)benzamide] | –

IC50 (AGS cells; Homo sapiens, AGS, 96 h) | Structure (SMILES) | other results
5.16 µM | CN(C(=O)c1cocn1)c1ccc(-c2ccc(C(=O)NCc3cccnc3)cc2)cc1 [Compound I-245] | –
3.48 µM | CCC(=O)N1CCc2c1ccc(-c1ccc(C(=O)NCc3cccnc3)cc1)c2F [Compound I-213] | –
> 30 µM | CCC(=O)N1CCc2cc(-c3ccc(C(=O)NCC4CNC4)cc3)ccc21 [Compound I-200, N-(azetidin-3-ylmethyl)-4-(1-propionylindolin-5-yl)benzamide] | –
7.86 µM | CCC(=O)N1CCc2cc(-c3ccc(C(=O)NCc4cccnc4)cc3OC)ccc21 [Compound I-94, 3-methoxy-4-(1-propionylindolin-5-yl)-N-(pyridin-3-ylmethyl)benzamide] | IC50 (AGS cells): 8.71 µM
> 30 µM | CCC(=O)N1CCc2cc(-c3ccc(C(=O)NCC4CCCNC4)cc3)ccc21 (stereo not shown) [Compound I-63, N-(piperidin-3-ylmethyl)-4-(1-propionylindolin-5-yl)benzamide] | –
> 30 µM | CCC(=O)N1CCc2cc(-c3ccc(C(=O)NCc4cnccc4C)cc3)ccc21 [Compound I-188, N-((4-methylpyridin-3-yl)methyl)-4-(1-propionylindolin-5-yl)benzamide] | –
> 30 µM | CCC(=O)N1CCc2cc(-c3ccc(C(=O)NCc4cn[nH]c4)cc3)ccc21 [Compound I-72, N-((1H-pyrazol-4-yl)methyl)-4-(1-propionylindolin-5-yl)benzamide] | –
– | CCC(=O)N1CCc2cc(-c3ccc(C(=O)NCc4cccnc4)c(F)c3)ccc21 [Compound I-98, 2-fluoro-4-(1-propionylindolin-5-yl)-N-(pyridin-3-ylmethyl) benzamide] | IC50 (MV-4-11 cells): 0.845 µM; IC50 (RS4;11 cells): > 30 µM
> 30 µM | CCC(=O)N1CCc2cc(-c3ccc(C(=O)NCC4CCNCC4)cc3)ccc21 [Compound I-70, N-(piperidin-4-ylmethyl)-4-(1-propionylindolin-5-yl)benzamide] | –
4.57 µM | CCCC(=O)N(C)c1ccc(-c2ccc(C(=O)NCc3cccnc3)cc2)cc1 [Compound I-230, 4′-(N-methylbutyramido)-N-(pyridin-3-ylmethyl)-[1,1′-biphenyl]-4-carboxamide] | –
3.59 µM | CCC(=O)N(C)c1ccc(-c2ccc(C(=O)NCc3cccnc3)cc2)cc1OC [Compound I-248, 3′-methoxy-4′-(N-methylpropionamido)-N-(pyridin-3-ylmethyl)-[1,1′-biphenyl]-4-carboxamide] | –
> 10 µM | CCC(=O)N1CCc2cc(-c3ccc(C(=O)NCc4ccnnc4)cc3)ccc21 [Compound I-52, 4-(1-propionylindolin-5-yl)-N-(pyridazin-4-ylmethyl)benzamide] | IC50 (AGS cells): > 8.01 µM
> 30 µM | CCC(=O)N(C)c1ccc(-c2ccc(C(=O)NCc3cnccc3C)cc2)cc1 [Compound I-238] | –
1.87 µM | CC(C)C(=O)N(C)c1ccc(-c2ccc(C(=O)NCc3cccnc3)cc2)cc1 [Compound I-250] | –
3.22 µM | O=C(NCc1cccnc1)c1ccc(-c2ccc3c(c2)CCN3C(=O)CO)cc1 [Compound I-47, 4-(1-(2-hydroxyacetyl)indolin-5-yl)-N-(pyridin-3-ylmethyl)benzamide] | –
1.54 µM | CCC(=O)N1CCc2cc(-c3ccc(C(=O)NCc4cccnc4)cc3)c(C)cc21 (single isomer, unassigned) [Compound I-203, 4-(6-methyl-1-propionylindolin-5-yl)-N-(pyridin-3-ylmethyl)benzamide] | –
2.94 µM | O=C(NCc1cccnc1)c1ccc(-c2ccc3c(c2)CCN3C(=O)C2CC2)cc1 [Compound I-220] | –
